pEC50: −log10 of the molar value. ≈ marks a conversion by molar mass, not a printed value. Read-outs that look alike come from different tables or passages of the source.
Experiments:
[1] = Cytotoxicity, CEM cell growth; type: cell-based; details: human, cem cells; 3 days; read-out: Cytotoxicity (IC50) CEM cell
Experimental: (§1) To determine the cellular toxicity of the present compounds, the T-lymphoblastoic cell line (CEM) and the HEP-G2 cell line (parent cell line from which 2.2.15 cell line is produced) were used. Cells were subjected to varying concentrations of the drug(s) and cell numbers were determined 3 days post treatment by the method described by Chen, C-H and Cheng, Y-C, J. Biol. Chem., 264, 11934 (1989). Concentrations of the drug which would result in inhibition of cell growth were determined from the plot generated by representing cell numbers corresponding to the individual drug concentrations.

Yellow Fever virus = test: microbe, parasite or virus in culture; type: cell-based
HBV [2] = test: microbe, parasite or virus in culture; type: cell-based, Hepatitis B virus; details: for pEC50: Hepatitis B virus, 144 h; for inhibition of HBV replication / DNA level: in words
HBsAg = test: microbe, parasite or virus in culture; type: cell-based, Hepatitis B virus; details: for pEC50: Hepatitis B virus, 144 h, read-out: Anti-viral activity (ED50) HbsAg; for HbsAg expression inhibition: in words
[3] = Cytotoxicity, HepG2 cell growth; type: cell-based; details: human, hepg2 cells; 3 days; read-out: Cytotoxicity (IC50) HepG2 cell
Experimental: as §1

[4] = Solubility: saturated solution in PBS at room temperature; type: physicochemical; details: aqueous buffer
Text: 3. The symbol "*" denotes the concentration of the saturated solution in
PBS at room temperature.

HBsAg in Hep3B cells = test: Suppression of HBsAg secretion in Hep3B cells, serum-free, 2 days; type: cell-based; details: Homo sapiens, 48 h, read-out: EC50 Hep3B (50% reduction of HBsAg secretion)
Text: (§2) Biological testing results of Helioxanthin and
(§3) its derivatives for suppression of HBsAg
(§4) in HepA2 and Hep3B cells in serum-free condition for 2 days
(§5) The symbol, "**" denotes EC50, the concentration of tested compounds
(§6) which exerted 50% reduction of HBsAg secretion in human hepatoma cells.

HBsAg in HepA2 cells = test: Suppression of HBsAg secretion in HepA2 cells, serum-free, 2 days; type: cell-based; details: Homo sapiens, HepA2, 48 h, read-out: EC50 HepA2 (50% reduction of HBsAg secretion)
Text: as §2, §3, §4
The symbol, "*" denotes HepA2, HBV DNA stable transfected HBV dimer DNA.
as §5, §6

HBV [5] = details: background; in words; cited from earlier work
[6] = background; in words; cited from earlier work
[7] = Yellow fever virus, BHK, 144 h, read-out: Anti-viral activity (ED50) YFV, plaque reduction, BHK cells, 6 days

OCc1cc2c(Br)cc3c(c2c(-c2ccc4c(c2)OCO4)c1CO)OCO3 [ZHU-IX-135-1, 2,3-dihydroxymethyl-5-bromo-7,8-methylenedioxy-1-(3', 4'-methylenedioxyphenyl)napthalene]
CC50 at 72 h [1]: > 30 µM
pEC50 (Yellow Fever virus; [7]): 4.85
pEC50 (HBV [2]): 5.52
inhibition of HBV replication / DNA level (HBV [2]): inhibit HBV replication
pEC50 (HBsAg): 5.07
HbsAg expression inhibition (HBsAg): inhibit HBV replication and HbsAg expression
CC50 at 72 h [3]: 12 µM
solubility [4]: 24.8 µM (≈ 10.7 µg/mL)

CC(=O)Oc1c2c(c(-c3ccc4c(c3)OCO4)c3cc4c(cc13)OCO4)C(=O)OC2 [Taiwanin E acetate]
pEC50 (HBsAg in Hep3B cells): < 4.90
pEC50 (HBsAg in HepA2 cells): < 4.90

Cc1cc2ccc3c(c2c(-c2ccc4c(c2)OCO4)c1CO)OCO3 [ZHU-IX-159, 3-methyl-7,8-methylenedioxy-1-(3',4'-methylenedioxyphenyl)-2-hydroxymethylenaphtalene]
pEC50 (Yellow Fever virus; [7]): < 5.00
pEC50 (HBV [2]): < 5.00
pEC50 (HBsAg): 5.00
CC50 at 72 h [3]: 16 µM
solubility [4]: 24.4 µM (≈ 8.21 µg/mL)

COc1cc(C2c3cc(O)c(OC)cc3CC3C(=O)OCC32)ccc1O (centres unmarked) [Conidendrin]
pEC50 (HBsAg in Hep3B cells): < 4.90
pEC50 (HBsAg in HepA2 cells): < 4.90

COc1cc2c(OC(C)=O)c3c(c(-c4ccc5c(c4)OCO5)c2cc1OC)C(=O)OC3 [Diphylline Acetate]
pEC50 (HBsAg in Hep3B cells): < 4.90
pEC50 (HBsAg in HepA2 cells): < 4.90

Cc1c(C=O)cc2ccc3c(c2c1-c1ccc2c(c1)OCO2)OCO3 [ZHU-IX-189, 5,6-methylenedioxy-4-(3',4'-methylendioxyphenyl)-2-methylnapthalene-3-aldehyde]
pEC50 (Yellow Fever virus; [7]): < 4.60
pEC50 (HBV [2]): < 5.00
pEC50 (HBsAg): < 5.00

Nc1ncnc2c1ncn2[C@@H]1O[C@H](COP(=O)(O)O)[C@@H](O)[C@@H]1O [ara-AMP]
effect on HBV infection (HBV [5]): transiently suppress HBV infection
toxicity [6]: extremely toxic

Nc1nc2c(ncn2CCC(CO)CO)c(=O)[nH]1 [PCV]
effect on HBV infection (HBV [5]): recurrence of HBV after a period of treatment

O=C(O)c1cc2ccc3c(c2c(-c2ccc4c(c2)OCO4)c1CO)OCO3 [ZHU-IX-157, sodium 5,6-methylenedioxy-4-(3',4'-methylenedioxyphenyl)-3-hydroxymethylnapthalene-2-carbonate]
CC50 at 72 h [1]: > 30 µM
pEC50 (Yellow Fever virus; [7]): 5.10
activity against the Yellow fever virus (Yellow Fever virus; in words): demonstrated activity against the Yellow fever virus
pEC50 (HBV [2]): 5.60
pEC50 (HBsAg): 5.00
CC50 at 72 h [3]: 26 µM
solubility [4]: 255 µM

O=C1OCc2c1cc1c(Br)cc3c(c1c2-c1cc2c(cc1Br)OCO2)OCO3 [ZHU-IX-143, 8,2'-dibromo-5,6-methylenedioxy-4-(4',5'-methylenedioxyphenyl)-3-hydroxymethylnapthalene-2-carboxylic acid lactone]
CC50 at 72 h [1]: > 30 µM
pEC50 (Yellow Fever virus; [7]): < 5.00
pEC50 (HBV [2]): < 5.00
pEC50 (HBsAg): < 5.00
CC50 at 72 h [3]: 20 µM
solubility [4]: 11.9 µM (≈ 6.02 µg/mL)

Cc1c(C(=O)O)cc2ccc3c(c2c1-c1ccc2c(c1)OCO2)OCO3 [ZHU-X-10, sodium 5,6-methylenedioxy-4-(3',4'-methylenedioxyphenyl)-2-methylnapthalene-3-carbonate]
pEC50 (Yellow Fever virus; read-out: Anti-viral activity (ED50) YFV, plaque reduction, BHK cells, 6 days, 8640 min): < 4.60

OCc1cc2ccc3c(c2c(-c2ccc4c(c2)OCO4)c1CO)OCO3 [ZHU-IX-124-2, 2,3-dihydroxymethyl-5,6-methylenedioxy-4-(3',4'-methylenedioxyphenyl)napthalene]
CC50 at 72 h [1]: > 30 µM
pEC50 (Yellow Fever virus; [7]): < 5.00
pEC50 (HBV [2]): 5.00
pEC50 (HBsAg): 5.00
CC50 at 72 h [3]: 16 µM
solubility [4]: 127 µM (≈ 44.8 µg/mL)

O=C1OC(=O)c2c1cc1cc3c(cc1c2-c1cc2c(cc1Br)OCO2)OCO3 [ZHU-IX-120-3, 6,7-methylenedioxy-1-(2'-bromo-4',5'-methylenedioxyphenyl)napthalene-2,3-dicarboxylic acid anhydride]
CC50 at 72 h [1]: > 30 µM
pEC50 (Yellow Fever virus; [7]): < 5.00
pEC50 (HBV [2]): < 5.00
pEC50 (HBsAg): < 5.00
CC50 at 72 h [3]: 11 µM
solubility [4]: 11.8 µM (≈ 5.21 µg/mL)

Cc1cc2ccc3c(c2c(-c2ccc4c(c2)OCO4)c1C)OCO3 [ZHU-IX-163-2]
pEC50 (Yellow Fever virus; [7]): < 5.00
pEC50 (HBV [2]): < 5.00
pEC50 (HBsAg): < 5.00
CC50 at 72 h [3]: 17 µM
solubility [4]: 18.4 µM (≈ 5.89 µg/mL)

COc1cc(-c2c3c(cc4cc(OC)c(OC(C)=O)cc24)C(=O)OC3)ccc1OC(C)=O [Diacetate]
pEC50 (HBsAg in Hep3B cells): < 4.90
pEC50 (HBsAg in HepA2 cells): < 4.90

COc1cc(-c2c3c(cc4cc(OC)c(O)cc24)C(=O)OC3)ccc1O [Dehydroconidendrin]
pEC50 (HBsAg in Hep3B cells): < 4.90
pEC50 (HBsAg in HepA2 cells): < 4.90

O=C(O)c1c(CO)cc2ccc3c(c2c1-c1ccc2c(c1)OCO2)OCO3 [ZHU-IX-153, sodium 7,8-methylenedioxy-1-(3',4'-methylendioxyphenyl)-3-hydroxymethylnapthalene-2-carbonate]
pEC50 (Yellow Fever virus; [7]): < 5.00
pEC50 (HBV [2]): < 5.00
pEC50 (HBsAg): < 5.00
CC50 at 72 h [3]: > 30 µM
solubility [4]: 255 µM

O=C1OC(=O)c2c1c(Br)c1cc3c(cc1c2-c1cc2c(cc1Br)OCO2)OCO3 [ZHU-IX-120-2, 1-bromo-6,7-methylenedioxy-4-(2'-bromo-4', 5'-methylenedioxyphenyl)napthalene-2,3-dicarboxylic acid anyhdride]
CC50 at 72 h [1]: > 30 µM
pEC50 (Yellow Fever virus; [7]): < 5.00
pEC50 (HBV [2]): < 5.00
pEC50 (HBsAg): < 5.00
CC50 at 72 h [3]: 6 µM
solubility [4]: 13.1 µM (≈ 6.81 µg/mL)

COc1cc2c(O)c3c(c(-c4ccc5c(c4)OCO5)c2cc1OC)C(=O)OC3 [Diphylline]
pEC50 (HBsAg in Hep3B cells): < 4.90
pEC50 (HBsAg in HepA2 cells): < 4.90

Cc1c(C(=O)O)cc2ccc3c(c2c1-c1ccc2c(c1)OCO2)OCO3 [ZHU-X-4]
pEC50 (Yellow Fever virus; [7]): < 4.70
pEC50 (HBV [2]): < 5.00
pEC50 (HBsAg): < 5.00

O=C1OCc2cc3ccc4c(c3c(-c3ccc5c(c3)OCO5)c21)OCO4 [ZHU-IX-139-2, 7,8-methylendioxy-1-(3',4'-methylenedioxyphenyl)-3-hydroxymethylnapthalene-2-carboxylic acid lactone]
CC50 at 72 h [1]: 18 µM
pEC50 (Yellow Fever virus; [7]): 4.80
pEC50 (HBV [2]): < 5.00
pEC50 (HBsAg): 5.00
CC50 at 72 h [3]: 12 µM
solubility [4]: 21 µM (≈ 7.31 µg/mL)

O=C1OC(=O)c2c1cc1c(Br)cc3c(c1c2-c1cc2c(cc1Br)OCO2)OCO3 [ZHU-IX-120-1, 5-bromo-7,8-methylenedioxy-1-(2'-bromo-4',5'-methylenedioxyphenyl)napthalene-2,3-dicarboxylic acid anhydride]
CC50 at 72 h [1]: > 30 µM
pEC50 (Yellow Fever virus; [7]): < 5.00
pEC50 (HBV [2]): < 5.00
pEC50 (HBsAg): < 5.00
CC50 at 72 h [3]: 6 µM
solubility [4]: 13.8 µM (≈ 7.18 µg/mL)

COc1cc(C2c3cc(OC(C)=O)c(OC)cc3CC3C(=O)OCC32)ccc1OC(C)=O (centres unmarked) [Conidendrin Diacetate]
pEC50 (HBsAg in Hep3B cells): < 4.90
pEC50 (HBsAg in HepA2 cells): < 4.90

COc1cc2c(OC)c3c(c(-c4ccc5c(c4)OCO5)c2cc1OC)C(=O)OC3 [Justicidin A]
pEC50 (HBsAg in Hep3B cells): < 4.90
pEC50 (HBsAg in HepA2 cells): < 4.90

O=C1OCc2cc3cc4c(cc3c(-c3ccc5c(c3)OCO5)c21)OCO4 [Taiwanin C]
pEC50 (HBsAg in Hep3B cells): 6.00
pEC50 (HBsAg in HepA2 cells): 5.90

Cc1c(CO)cc2ccc3c(c2c1-c1ccc2c(c1)OCO2)OCO3 [ZHU-IX-122-1, 3-methyl-5,6-methylenedioxy-4-(3',4'-methylenedioxyphenyl)-2-hydroxymethylnapthalene]
CC50 at 72 h [1]: > 30 µM
pEC50 (Yellow Fever virus; [7]): < 5.00
pEC50 (HBV [2]): 5.30
inhibition of HBV replication / DNA level (HBV [2]): inhibit HBV replication
pEC50 (HBsAg): 5.00
HbsAg expression inhibition (HBsAg): inhibit HBV replication and HbsAg expression
CC50 at 72 h [3]: > 30 µM
solubility [4]: 52.9 µM (≈ 17.8 µg/mL)

Nc1ccn([C@H]2CC[C@@H](CO)O2)c(=O)n1 [2',3'-dideoxycytidine (ddC), 2',3'-dideoxycytidine]
toxicity [6]: high toxicity on the central and peripheral nervous system

O=C1OCc2c1c(-c1ccc3c(c1)OCO3)c1cc3c(cc1c2O)OCO3 [Taiwanin E]
pEC50 (HBsAg in Hep3B cells): < 4.90
pEC50 (HBsAg in HepA2 cells): < 4.90

COc1ccc(C2c3cc(OC)c(OC)cc3CC3C(=O)OCC32)cc1OC (centres unmarked) [Conidendrin Methyl Ether]
pEC50 (HBsAg in Hep3B cells): < 4.90
pEC50 (HBsAg in HepA2 cells): < 4.90

From US6306899A (priority 1999, dated 2001)
